Counter-ions that a name gives are not always drawn. Like-named read-outs stand apart in the source and are kept apart here.
Key:
[1] = system: Mycobacterium sp. with the deposit number CGMCC No.21272; test: BIOLOG GEN III growth experiments; assay type: cell-based; conditions: growth on the substance; strain CGMCC No.21272 (YT)
[2] = system: Mycobacterium sp. with deposit number of CGMCC No.21273; test: BIOLOG GEN III growth experiments; assay type: cell-based; conditions: growth on the substance; strain CGMCC No.21273 (JD)
[3] = system: Mycobacterium sp. with deposit number of CGMCC No.21272; test: antibiotic susceptibility experiment; assay type: cell-based; conditions: strain CGMCC No.21272 (YT)
[4] = system: Mycobacterium sp. with deposit number of CGMCC No.21273; test: antibiotic susceptibility experiment; assay type: cell-based; conditions: strain CGMCC No.21273 (JD)
[5] = system: Mycobacterium sp. with the deposit number CGMCC No.21272; test: BIOLOG chemically sensitive experiments; assay type: cell-based; conditions: strain CGMCC No.21272 (YT)
[6] = system: Mycobacterium sp. with deposit number of CGMCC No.21273; test: BIOLOG chemically sensitive experiments; assay type: cell-based; conditions: strain CGMCC No.21273 (JD)
strain YT = test: inhibition of nitrification inhibitors on nitrification activity and growth; assay type: cell-based, Mycobacterium sp.; conditions: for inhibition at 5000 µM: Mycobacterium, read-out: Nitric oxide synthase (nitrification) activity inhibition rate (%); for inhibition at 5000 µM / NH4^+-N / NO2^--N / inhibition rate on nitrification activity: strain YT; for inhibition rate on nitrification activity: over the 35 days of culture
Method: The nitrogen contents of the two nitrogen sources were equal in a modified Stephenson medium with (NH4)2SO4 as a nitrogen source (NH4)2SO4 content was 2.0g/L) and a modified Stephenson medium with L-arginine hydrochloride (C6H14N4O2•HCl) as a nitrogen source (C6H14N4O2•HCl content was 1.6 g/L).
When sodium pyruvate was added as a carbon source in the design of a culture medium, 1.0M sodium pyruvate solution (the concentration was calculated in terms of pyruvic acid) was prepared firstly, the pH was adjusted to the range of 7.0-7.2, and the solution was sterilized separately for later use. Before use, 1ml of 1.0M sodium pyruvate solution was added to about 100ml of modified Stevenson culture medium with (NH4)2SO4 as a nitrogen source or L-arginine hydrochloride (C6H14N4O2•HCl) as a nitrogen source, and the pyruvic acid concentration of the culture system was designed to be 0.01M.
Four kinds of nitrification inhibitors 4-amino-1,2,4-triazole (ATC), dicyandiamide (DCD, C2H4N4), aminoguanidine hydrochloride (CH6N4•HCl), and guanylthiourea (C2H6N4S) were selected. The four nitrification inhibitors were prepared with a concentration of 500mM, respectively, after the solutions were filtered and sterilized, 1ml of the four nitrification inhibitors with a concentration of 500mM was added into the two medium with different nitrogen sources, such that the corresponding concentration of each of the nitrification inhibitors in the systems was 5 mM.
Two mediums with different nitrogen sources were respectively subjected to 5 treatments, namely without addition of an inhibitor, adding ATC, adding DCD, adding aminoguanidine hydrochloride, and adding guanylthiourea as shown in the table below; the YT system without addition of an inhibitor and the system without inoculation of strain YT and only addition of an inhibitor were respectively used as a control group; 1ml of PBS-YT bacterial liquid was inoculated, and 1ml of sterile water was used as a substitute when the inoculation of a bacterial strain was not performed. The total volume of each culture system was equal, it was about 100 ml.
1.5 Culture conditions: the culture was performed in a shaking table with a rotational speed of 180rpm at 28°C.
1.6 Measurement and calculation of indicator: the growth OD600 and pH value of thallus in the culture solution were measured every week, the contents of NH4^+-N, NO2^--N and NOx^--N were measured, the inhibition effect of the nitric oxide synthase (nitrification) activity of different culture systems were calculated and compared.
Nitric oxide synthase (nitrification) inhibition rate (%) = (NO2^--NYT concentration - NO2^--Nculture system added with an inhibitor concentration) ×100/ NO2^--NYT concentration

[7] = L-arginine hydrochloride as nitrogen source, inhibitor 5 mM, 7 days
[8] = L-arginine hydrochloride as nitrogen source, inhibitor 5 mM, 14 days
[9] = L-arginine hydrochloride as nitrogen source, inhibitor 5 mM, 21 days
[10] = L-arginine hydrochloride as nitrogen source, inhibitor 5 mM, 28 days
[11] = L-arginine hydrochloride as nitrogen source, inhibitor 5 mM, 35 days
[12] = ammonium sulfate as nitrogen source, inhibitor 5 mM, 7 days
[13] = ammonium sulfate as nitrogen source, inhibitor 5 mM, 14 days
[14] = ammonium sulfate as nitrogen source, inhibitor 5 mM, 21 days
[15] = ammonium sulfate as nitrogen source, inhibitor 5 mM, 28 days
[16] = ammonium sulfate as nitrogen source, inhibitor 5 mM, 35 days

## CCC(O)C(=O)O (centres unmarked) [A-hydroxybutyr atic acid]
[1]
  BIOLOG GEN III (growth experiments) Results: -
[2]
  BIOLOG GEN III (growth experiments) Results: -

## OC[C@H]1O[C@H](O[C@H]2O[C@H](CO)[C@@H](O)[C@H](O)[C@H]2O)[C@H](O)[C@@H](O)[C@@H]1O [D-trehalose]
[1]
  BIOLOG GEN III (growth experiments) Results: +
[2]
  BIOLOG GEN III (growth experiments) Results: +

## Romifloxacin
[3]
  Susceptibility degree: S
[4]
  Susceptibility degree: S

## O=C1CN(/N=C/c2ccc([N+](=O)[O-])o2)C(=O)N1 [Furantoin]
[3]
  Susceptibility degree: R
[4]
  Susceptibility degree: R

## Tween 40
[1]
  BIOLOG GEN III (growth experiments) Results: +
[2]
  BIOLOG GEN III (growth experiments) Results: +

## COc1cc(-c2ccc(-n3nc(-c4ccccc4)n[n+]3-c3ccccc3)c(OC)c2)ccc1-n1nc(-c2ccccc2)n[n+]1-c1ccccc1.[Cl-].[Cl-] [Tetrazolium blue]
[5]
  BIOLOG GEN II (chemically sensitive experiments) Results: -
[6]
  BIOLOG GEN II (chemically sensitive experiments) Results: -

## Penicillin
[3]
  Susceptibility degree: R
[4]
  Susceptibility degree: R

## [Cl-].[Na+] [1%NaCl, NaCl]
[5]
  BIOLOG GEN II (chemically sensitive experiments) Results: +
[6]
  BIOLOG GEN II (chemically sensitive experiments) Results: +

## CO[C@H]1/C=C/O[C@@]2(C)Oc3c(C)c([O-])c4c(O)c(cc(O)c4c3C2=O)NC(=O)/C(C)=C\C=C\[C@H](C)[C@H](O)[C@@H](C)[C@@H](O)[C@@H](C)[C@H](OC(C)=O)[C@@H]1C.[Na+] [Rifamycin SV]
[5]
  BIOLOG GEN II (chemically sensitive experiments) Results: +
[6]
  BIOLOG GEN II (chemically sensitive experiments) Results: +

## CC(O)CC(=O)O (racemic) [β-hydroxy-D,L-butyric acid]
[1]
  BIOLOG GEN III (growth experiments) Results: +
[2]
  BIOLOG GEN III (growth experiments) Results: +

## OC[C@H]1O[C@H](OCC2O[C@@H](O)[C@H](O)[C@@H](O)[C@@H]2O)[C@H](O)[C@@H](O)[C@H]1O (stereo partly drawn) [D-melibiose]
[1]
  BIOLOG GEN III (growth experiments) Results: +
[2]
  BIOLOG GEN III (growth experiments) Results: +

## C[C@H](O)C(=O)O [L-lactic acid]
[1]
  BIOLOG GEN III (growth experiments) Results: -
[2]
  BIOLOG GEN III (growth experiments) Results: -

## [Cl-].[Li+] [Lithium chloride]
[5]
  BIOLOG GEN II (chemically sensitive experiments) Results: +
[6]
  BIOLOG GEN II (chemically sensitive experiments) Results: +

## O=C(O)C[C@@H](O)C(=O)O [D-malic acid]
[1]
  BIOLOG GEN III (growth experiments) Results: -
[2]
  BIOLOG GEN III (growth experiments) Results: -

## O=C(O)CCC(=O)C(=O)O [α-ketoglutarate]
[1]
  BIOLOG GEN III (growth experiments) Results: +
[2]
  BIOLOG GEN III (growth experiments) Results: +

## O=C(CO)[C@@H](O)[C@H](O)[C@H](O)COP(=O)(O)O [D-fructose-6-phosphoric acid]
[1]
  BIOLOG GEN III (growth experiments) Results: +
[2]
  BIOLOG GEN III (growth experiments) Results: +

## OC[C@H]1O[C@H](OC[C@H]2O[C@H](OC[C@H]3O[C@H](O[C@]4(CO)O[C@H](CO)[C@@H](O)[C@@H]4O)[C@H](O)[C@@H](O)[C@@H]3O)[C@H](O)[C@@H](O)[C@H]2O)[C@H](O)[C@@H](O)[C@H]1O [Stachyose]
[1]
  BIOLOG GEN III (growth experiments) Results: -
[2]
  BIOLOG GEN III (growth experiments) Results: -

## O=[Te]([O-])[O-].[K+].[K+] [Potassium tellurite]
[5]
  BIOLOG GEN II (chemically sensitive experiments) Results: +
[6]
  BIOLOG GEN II (chemically sensitive experiments) Results: +

## CC(O)C(=O)[O-].[Na+] (centres unmarked) [1 % Sodium lactate, Sodium lactate]
[5]
  BIOLOG GEN II (chemically sensitive experiments) Results: +
[6]
  BIOLOG GEN II (chemically sensitive experiments) Results: +

## COC(=O)[C@@H](C)O [D-methyl lactate]
[1]
  BIOLOG GEN III (growth experiments) Results: -
[2]
  BIOLOG GEN III (growth experiments) Results: -

## Cotrimoxazole
[3]
  Susceptibility degree: S
[4]
  Susceptibility degree: S

## CO[C@@H]1O[C@H](CO)[C@@H](O)[C@H](O)[C@H]1O [β-methyl-D-glucoside]
[1]
  BIOLOG GEN III (growth experiments) Results: -
[2]
  BIOLOG GEN III (growth experiments) Results: -

## N=C(N)NN [Aminoguanidine hydrochloride, aminoguanidine hydrochloride]
Strain YT; 504 h, Ammonium sulfate, inhibitor 5 mM, Culture 21 days
  inhibition at 5000 µM: 99.4%
Strain YT; 504 h, L-arginine hydrochloride, inhibitor 5 mM, Culture 21 days
  inhibition at 5000 µM: 99.8%
Strain YT; 672 h, Ammonium sulfate, inhibitor 5 mM, Culture 28 days
  inhibition at 5000 µM: 97.2%
Strain YT; 672 h, L-arginine hydrochloride, inhibitor 5 mM, Culture 28 days
  inhibition at 5000 µM: 99.5%
Strain YT; Ammonium sulfate, inhibitor 5 mM, Culture 7 days (Table 13d)
  inhibition at 5000 µM: 99.2%
Strain YT; Ammonium sulfate, inhibitor 5 mM, Culture 14 days (Table 13d)
  inhibition at 5000 µM: 99.7%
Strain YT; Ammonium sulfate, inhibitor 5 mM, Culture 35 days
  inhibition at 5000 µM: 98%
Strain YT; L-arginine hydrochloride, inhibitor 5 mM, Culture 14 days (Table 13d)
  inhibition at 5000 µM: 99.8%
Strain YT; L-arginine hydrochloride, inhibitor 5 mM, Culture 35 days
  inhibition at 5000 µM: 99.1%
Strain YT; pure culture with two nitrogen sources, inhibitor 5 mM
  effect on growth of strain YT: can inhibit the growth
Strain YT; pure culture, inhibitor 5 mM
  effect on nitrification activity of strain YT: had an inhibitory effect
Strain YT; [7]
  NH4^+-N: 12.86 mg/L
  NO2^--N: 0 mg/L
Strain YT; [8]
  NH4^+-N: 38.07 mg/L
  NO2^--N: 0.24 mg/L
Strain YT; [9]
  NH4^+-N: 100.12 mg/L
  NO2^--N: 0.28 mg/L
Strain YT; [10]
  NH4^+-N: 145.55 mg/L
  NO2^--N: 0.58 mg/L
Strain YT; [11]
  NH4^+-N: 58.70 mg/L
  NO2^--N: 1.00 mg/L
Strain YT; L-arginine hydrochloride as nitrogen source
  inhibition rate on nitrification activity: ≥ 99%
Strain YT; [12]
  NH4^+-N: 418.92 mg/L
  NO2^--N: 0 mg/L
Strain YT; [13]
  NH4^+-N: 419.06 mg/L
  NO2^--N: 0.01 mg/L
Strain YT; [14]
  NH4^+-N: 438.98 mg/L
  NO2^--N: 0.03 mg/L
Strain YT; [15]
  NH4^+-N: 448.65 mg/L
  NO2^--N: 0.19 mg/L
Strain YT; [16]
  NH4^+-N: 468.07 mg/L
  NO2^--N: 0.14 mg/L
Strain YT; ammonium sulfate as nitrogen source
  inhibition rate on nitrification activity: more than 97%

## D-salicin
[1]
  BIOLOG GEN III (growth experiments) Results: -
[2]
  BIOLOG GEN III (growth experiments) Results: -

## OC[C@@H](O)C(O)[C@H](O)CO [D-arabitol]
[1]
  BIOLOG GEN III (growth experiments) Results: -
[2]
  BIOLOG GEN III (growth experiments) Results: -

## OC[C@H]1O[C@H](OC[C@H]2O[C@H](O[C@]3(CO)O[C@H](CO)[C@@H](O)[C@@H]3O)[C@H](O)[C@@H](O)[C@@H]2O)[C@H](O)[C@@H](O)[C@H]1O [D-raffinose]
[1]
  BIOLOG GEN III (growth experiments) Results: -
[2]
  BIOLOG GEN III (growth experiments) Results: -

## O=C[C@H](O)[C@@H](O)[C@H](O)[C@H](O)COP(=O)(O)O [D-glucose-6-phosphoric acid]
[1]
  BIOLOG GEN III (growth experiments) Results: -
[2]
  BIOLOG GEN III (growth experiments) Results: -

## O=C(O)C[C@H](O)C(=O)O [L-malic acid]
[1]
  BIOLOG GEN III (growth experiments) Results: +
[2]
  BIOLOG GEN III (growth experiments) Results: +

## OC[C@H]1O[C@H](O[C@H]2[C@H](O)[C@@H](O)[C@H](O)O[C@@H]2CO)[C@H](O)[C@@H](O)[C@@H]1O [D-maltose]
[1]
  BIOLOG GEN III (growth experiments) Results: -
[2]
  BIOLOG GEN III (growth experiments) Results: -
